Measured values: US8552035B2, “Phenanthrenone compounds, compositions and methods” (Pfizer Inc., priority 2008, dated 2013)

Tests used:
IFNγ = assay: LPS-induced human whole blood, IFNγ release; type: cell-based
Experimental: (§1) Venous blood from human donors was collected as 10 ml aliquots in tubes containing sodium heparin (BD Vacutainer from Becton Dickinson and Company, Franklin Lakes, N.Y.). Blood was added to sterile polystyrene round bottom 96-well tissue culture plates (Corning Costar) at 180 Blood was placed in a humidified 37 C incubator with 5% CO2 while compounds were prepared (nearly 60 minutes).
(§2) Compounds were prepared from 10 mM stock solutions in dimethylsulfoxide (DMSO, Sigma-Aldrich). Stock compound was diluted in DMSO to give appropriate starting concentration then diluted serially 1/3 in DMSO (i.e. 15 μl compound+30 μl DMSO), followed by diluting each serial dilution 1/167 into vehicle solution (2% DMSO in phosphate buffered saline (Dulbecco's Phosphate Buffered Saline without calcium chloride without magnesium chloride, Invitrogen Corporation, Carlsbad Calif.)). Compound or vehicle was added to blood in 10 μl aliquots as triplicates, omitting the outside wells to minimize possible edge effects. The final highest concentration of each compound in the assay ranged from 3 to 0.3 μM. Final DMSO concentration in the assay was 0.1%. The plate containing the samples was gently vortexed to mix and replaced in the incubator. LPS stock (E. coli serotype 0111:B4, Sigma-Aldrich), stored in aliquots of 100 μg/ml in RPMI at −20° C., was diluted […] in RPMI to make a working stock solution. After 60 minutes of incubation, 10 μl of the prepared LPS working stock was added to the blood to a final concentration of 100 ng/ml. Wells to be used as negative control received RPMI media with no LPS. The plate was again gently vortexed and the plates incubated overnight for 22 hours. Following incubation, the blood was centrifuged at 1500×g for 5 minutes and the plasma removed to either freeze at −20° C. or assay for cytokine release.
(§3) IL-1β, IFNγ and TNFα protein levels were measured using Meso Scale assay kits (Meso Scale Discovery, Gaithersburg, Md., U.S.A.). Reagents were allowed to come to room temperature. Meso Scale plates were blocked with 150 μl of Meso Scale Block B diluent, gently shaking at room temperature for 60 minutes. Plates were washed 3× with wash buffer (PBS, Invitrogen Corporation, with 0.05% Tween-20, Sigma-Aldrich). Calibrators for standard curves were prepared in human plasma/serum assay diluent as a 1/5 serial dilution to achieve final concentrations ranging from 50000 pg/ml to 3.2 pg/ml. Samples were added at 10 to 20 μl/well and calibrators were added at 20 μl/well then incubated at room temperature with gentle shaking for 2 hours. Plates were again washed 3× with wash buffer. Detection antibody was diluted in human plasma/serum antibody diluent to 1 μg/ml and added to the plate at 20 μl/well. Plates were incubated as before for 2 hours and washed again. Read Buffer T (4×) was diluted 1:1 with mqH20 to 2× concentration and 150 μl added to each well. Plates were read on the SECTOR Imager 6000 (Meso Scale Discovery) to generate raw signal values.
(§4) Individual sample signal values were compared to positive and negative controls (vehicle treated blood with LPS and vehicle treated blood without LPS, respectively) to generate % inhibition. Triplicate values were averaged for each donor. The values for three or four donors were averaged and graphed using 4-parameter fit curves in the LabStats plug-in for the Microsoft Excel application.

osteocalcin = assay: 28-day mouse side-effect model, serum osteocalcin suppression; type: in vivo; settings: oral gavage 28 days
Experimental: (§5) 10-12 week old female Swiss Webster mice (Taconic, Germantown, N.Y., U.S.A.) weighing 27-29 grams are used in accordance with the guidelines of the Institutional Animal Care and Use Committee and in accordance with NIH guidelines on laboratory animal welfare. Mice are acclimated to the Pfizer animal facility for 3-7 days prior to being placed on study. Prednisolone and DAGR compounds are administered by oral gavage for a total of 28 days. Each treatment group generally contains 8-10 mice. To establish a dosing regimen for the studies, a pilot pharmacodynamic time course experiment is conducted to quantify TNFa repression after a single ED80 dose (determined from the acute LPS endotoxemia mouse model). […] DAGR compounds vary in their required frequency of doses.
(§6) Body weights are measured on the first and last day of each experiment. Blood samples are obtained after ˜3 weeks of dosing for steady-state pharmacokinetic analysis. To assess compound effects on LPS-induced TNF-a, all mice receive an intraperitoneal injection of LPS (Salmonella Typhosa, Sigma, St. Louis, L-7895) 2.5 hr after the last dose on day 28. Mice are sacrificed 90 min. after LPS administration. Serum samples are assayed for osteocalcin and TNFa using the Linco multiplex assay (St. Charles, Mo.) and Luminex 100 (Austin, Tex.). Samples are diluted 1:20 and the assay is run according to manufacturer's instructions. An osteocalcin standard is purchased separately from Biomedical Technologies Incorporated (Stoughton, Mass.). Serum insulin is measured to assess compound effects on insulin resistance. Insulin was measured using the UltraSensitive Mouse EIA kit from Alpco Diagnostics (Salem, N.H.) following the manufacturer's protocol.
(§7) ED50 and ED80 values are obtained for the various parameters using four-parameter logistic fits of data. For each experiment/dose group, outliers are detected by calculating the number of standard deviations each mouse's value was from the mean of their group and then dividing by the standard deviation of the group. The means and standard deviations used in this calculation omitted the value being examined so that, if it were an outlier, it would have no influence. If the value being examined is more than 2.5 standard deviations from the mean, it was not used in the rest of the calculations.
(§8) Percent inhibition values are then calculated for each animal using the means of the vehicle and 10 mpk prednisone control groups. The individual mouse percent inhibition values are then fit to a four-parameter logistic model using the area under curve mean for each group. Since all four parameters are estimated and the lower plateau is not fixed at 0% and the upper plateau was not fixed at 100%, the ED50 and ED80 values are calculated by using an inverse calibration formula for a response equal to 50% or 80%. The designation “nd” means not determined.

TNFα = assay: LPS-induced human whole blood, TNFα release; type: cell-based
Experimental: as §1, §2, §3, §4

serum insulin = assay: 28-day mouse side-effect model, serum insulin; type: in vivo; settings: oral gavage 28 days
Experimental: as §5, §6, §7, §8

[1] = Homo sapiens, 0.137174 nM, mean of donors
[2] = Homo sapiens, 0.411523 nM, mean of donors
[3] = Homo sapiens, 1.234568 nM, mean of donors
[4] = Homo sapiens, 3.703704 nM, mean of donors
[5] = Homo sapiens, 11.11111 nM, mean of donors
[6] = Homo sapiens, 33.33333 nM, mean of donors
[7] = Homo sapiens, 100 nM, mean of donors
[8] = Homo sapiens, 300 nM, mean of donors
[9] = ex vivo LPS-stimulated human whole blood, extent of inhibition, concentration not given

`Cc1ncccc1NC(=O)c1ccc2c(c1)C(=O)C[C@@H]1C[C@@](O)(c3ccccc3)[C@](C)(O)C[C@@]21Cc1ccccc1` [Example 1, (4bR,6R,7R,8aS)-4b-benzyl-6,7-dihydroxy-6-methyl-N-(2-methylpyridin-3-yl)-10-oxo-7-phenyl-4b,5,6,7,8,8a,9,10-octahydrophenanthrene-2-carboxamide] gave an inhibition at 0.000137174 µM (IFNγ; [1]) of -3.93%, an inhibition at 0.000411523 µM (IFNγ; [2]) of 15.6% and an inhibition at 0.00123457 µM (IFNγ; [3]) of 18.4%. It also gave an inhibition at 0.0037037 µM (IFNγ; [4]) of 26.9%, an inhibition at 0.0111111 µM (IFNγ; [5]) of 51% and an inhibition at 0.0333333 µM (IFNγ; [6]) of 66.2%. The inhibition at 0.1 µM (IFNγ; [7]) was 72.5%, the inhibition at 0.3 µM (IFNγ; [8]) was 72.9% and the “level of inhibition of IFN” value (IFNγ; [9]) was 73%. The ED50 at 28 days (osteocalcin; female, Swiss Webster, read-out: Osteocalcin Suppression (ED50 dose)) was 0.081 mg/kg, the “Osteocalcin Suppression (ED80 dose)” value (osteocalcin) was 0.35 and the inhibition at 0.000137174 µM (TNFα; [1]) was 0.604%. It also gave an inhibition at 0.000411523 µM (TNFα; [2]) of -3.62%, an inhibition at 0.00123457 µM (TNFα; [3]) of 0.811% and an inhibition at 0.0037037 µM (TNFα; [4]) of 7.09%. The inhibition at 0.0111111 µM (TNFα; [5]) was 18.1%, the inhibition at 0.0333333 µM (TNFα; [6]) was 30.7% and the inhibition at 0.1 µM (TNFα; [7]) was 42.2%. The inhibition at 0.3 µM (TNFα; [8]) was 42.8%, the “level of inhibition of TNF” value (TNFα; [9]) was 43% and the ED50 at 28 days (serum insulin; female, Swiss Webster, read-out: Insulin (ED50 dose)) was 1.28 mg/kg. The “Insulin (ED80 dose)” value (serum insulin) was 5.89.
